Laboratory results taken from patent US20240360151A1 (SANOFI, priority 2023, published 2024).

Experiments:
NLRP3 inflammasome = target: T1, NLRP3 inflammasome (Homo sapiens, UniProt Q96P20); assay: IL-1β secretion assay (NLRP3 IC50) in LPS-primed, nigericin-activated THP-1 cells, HTRF; assay type: cell-based; conditions: monocytic THP-1 cells; LPS 10 ng/mL 3 h priming, then compound + nigericin 10 μM 2 h; relative IC50, 10 concentrations, geometric mean
T1 construct: endogenous in cells; host or cells: THP-1 monocytic cells
In short: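 IL-1β in supernatant read by HTRF after 2 h co-incubation of compound (0.1% DMSO, 10 concentrations, 1:3 series) with nigericin at 10 μM final, following 3 h LPS (10 ng/mL) priming of THP-1 monocytes at 37° C. Inhibition normalised to unactivated and no-compound controls; geometric-mean relative IC50 from 4-parameter logistic model.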

[1] = system: NF-kB pathway (TNF-α secretion by THP-1 cells); assay: TNF-α secretion assay in LPS-stimulated THP-1 cells, Lumit immunoassay; assay type: cell-based, human; conditions: Homo sapiens, THP-1, 3 h, monocytic THP-1 cells, LPS 10 ng/mL, relative IC50, 10 concentrations, geometric mean
In short: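 TNF-α release was quantified directly in the cell plate by Lumit immunoassay after a 3-h, 10 ng/mL LPS trigger of compound-treated THP-1 cells (RPMI, 5% FBS). Percent inhibition versus no-compound and unstimulated controls fed a 4-parameter logistic fit over 10 concentrations, giving geometric-mean relative IC50.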

T1 sequence (Q96P20 whole entry): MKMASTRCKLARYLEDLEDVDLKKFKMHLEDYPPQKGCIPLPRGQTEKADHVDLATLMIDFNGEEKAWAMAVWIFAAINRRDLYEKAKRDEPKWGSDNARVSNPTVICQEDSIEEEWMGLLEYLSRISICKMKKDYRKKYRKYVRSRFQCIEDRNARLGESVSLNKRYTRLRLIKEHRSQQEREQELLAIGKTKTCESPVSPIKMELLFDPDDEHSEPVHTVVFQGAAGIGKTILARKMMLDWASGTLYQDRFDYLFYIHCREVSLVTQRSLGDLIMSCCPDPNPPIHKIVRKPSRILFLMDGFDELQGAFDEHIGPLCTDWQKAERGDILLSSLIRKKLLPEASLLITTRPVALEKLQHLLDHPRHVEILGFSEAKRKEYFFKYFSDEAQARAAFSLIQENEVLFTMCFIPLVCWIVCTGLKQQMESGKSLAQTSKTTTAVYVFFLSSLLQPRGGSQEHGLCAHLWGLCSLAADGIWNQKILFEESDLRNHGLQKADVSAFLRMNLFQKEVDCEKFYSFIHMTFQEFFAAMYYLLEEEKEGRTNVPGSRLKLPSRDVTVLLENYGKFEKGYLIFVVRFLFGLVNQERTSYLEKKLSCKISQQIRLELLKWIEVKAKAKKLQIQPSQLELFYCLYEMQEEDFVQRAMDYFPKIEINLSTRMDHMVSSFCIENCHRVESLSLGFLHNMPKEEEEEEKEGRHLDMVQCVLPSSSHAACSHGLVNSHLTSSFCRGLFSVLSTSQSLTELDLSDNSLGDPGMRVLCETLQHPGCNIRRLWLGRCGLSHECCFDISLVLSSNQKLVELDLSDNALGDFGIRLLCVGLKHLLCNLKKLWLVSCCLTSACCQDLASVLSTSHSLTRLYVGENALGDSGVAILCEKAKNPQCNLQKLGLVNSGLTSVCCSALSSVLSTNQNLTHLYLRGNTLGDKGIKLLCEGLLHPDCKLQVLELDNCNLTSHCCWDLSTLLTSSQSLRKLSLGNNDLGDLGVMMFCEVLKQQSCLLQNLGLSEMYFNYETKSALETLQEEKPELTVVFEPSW

Structure (SMILES)	IC50 (NLRP3 inflammasome) [µM]	IC50 [1] [µM]
[2H]C([2H])(O)[C@@H]1CN(c2ccc(-c3c(C)cc(C)cc3O)nn2)CCO1 [Example 165, 2-[6-[(2S)-2-[dideuterio(hydroxy)methyl]morpholin-4-yl]pyridazin-3-yl]-3,5-dimethylphenol]	0.042	5.62
CC(=O)NC[C@H]1CCCN(c2ccc(-c3c(C)cc(C(F)(F)F)cc3O)nn2)C1 [Example 167, N-[[(3R)-1-[6-[2-hydroxy-6-methyl-4-(trifluoromethyl)phenyl]pyridazin-3-yl]-3-piperidyl]methyl]acetamide]	0.309	> 10
[2H]C([2H])(O)[C@@H]1CN(c2ccc(-c3c(C)cc(Cl)cc3O)nn2)CCO1 [Example 169, 5-chloro-2-[6-[(2S)-2-[dideuterio(hydroxy)methyl]morpholin-4-yl]pyridazin-3-yl]-3-methylphenol]	0.008	> 10
Cc1cc(C)c(-c2cc(C(F)F)c(N3CCO[C@H](CO)C3)nn2)c(O)c1 [Example 170, 2-[5-(difluoromethyl)-6-[(2S)-2-(hydroxymethyl)morpholin-4-yl]pyridazin-3-yl]-3,5-dimethyl-phenol]	0.012	> 10
Cc1cc(Cl)cc(O)c1-c1cc(C(F)F)c(N2CCO[C@H](CO)C2)nn1 [Example 171, 5-chloro-2-[5-(difluoromethyl)-6-[(2S)-2-(hydroxymethyl)morpholin-4-yl]pyridazin-3-yl]-3-methyl-phenol]	0.007	> 10
Cc1cc(O)c(-c2ccc(N3CCO[C@H](CO)C3)nn2)c(Cl)c1 [Example 172, 3-chloro-2-[6-[(2S)-2-(hydroxymethyl)morpholin-4-yl]pyridazin-3-yl]-5-methyl-phenol]	0.036	> 10
Cc1cc(C)c(-c2ccc(N3C[C@@H](CO)O[C@@H](CO)C3)nn2)c(O)c1 [Example 173, 2-[6-[(2R,6S)-2,6-bis(hydroxymethyl)morpholin-4-yl]pyridazin-3-yl]-3,5-dimethyl-phenol]	0.04	> 10
Cc1cc(C)c(-c2ccc(N3CCOC(CF)C3)nn2)c(O)c1 (stereo not shown) [Example 174, 2-[6-[2-(fluoromethyl)morpholin-4-yl]pyridazin-3-yl]-3,5-dimethyl-phenol]	0.17	> 10
Cc1cc(O)c(-c2nnc(N3CCO[C@H](CO)C3)cc2C)c(Cl)c1 [Example 177, 3-chloro-2-[6-[(2S)-2-(hydroxymethyl)morpholin-4-yl]-4-methyl-pyridazin-3-yl]-5-methyl-phenol]	0.091	7.38
Cc1cc(C(F)(F)F)cc(O)c1-c1ccc(N2C[C@@H](CO)O[C@@H](CO)C2)nn1 [Example 178, 2-[6-[(2R,6S)-2,6-bis(hydroxymethyl)morpholin-4-yl]pyridazin-3-yl]-3-methyl-5-(trifluoromethyl)phenol]	0.007	> 10
Cc1cc(C)c(-c2cc(CO)c(N3CCO[C@H](CO)C3)nn2)c(O)c1 [Example 187, 2-[5-(hydroxymethyl)-6-[(2S)-2-(hydroxymethyl)morpholin-4-yl]pyridazin-3-yl]-3,5-dimethyl-phenol]	0.066	> 10
Cc1cc(Cl)cc(O)c1-c1nnc(N2CCO[C@H](CO)C2)cc1CO [Example 188, 5-chloro-2-[4-(hydroxymethyl)-6-[(2S)-2-(hydroxymethyl)morpholin-4-yl]pyridazin-3-yl]-3-methyl-phenol]	0.414	> 10
Cc1cc(Cl)cc(O)c1-c1cc(CO)c(N2CCO[C@H](CO)C2)nn1 [Example 189, 5-chloro-2-[5-(hydroxymethyl)-6-[(2S)-2-(hydroxymethyl)morpholin-4-yl]pyridazin-3-yl]-3-methyl-phenol]	0.012	> 10
[2H]C([2H])(O)[C@@H]1CN(c2ccc(-c3c(C)cc(C(F)(F)F)cc3O)nn2)CCO1 [Example 192, 2-[6-[(2S)-2-[dideuterio(hydroxy)methyl]morpholin-4-yl]pyridazin-3-yl]-3-methyl-5-(trifluoromethyl)phenol]	0.011	> 10
